In patent publication US20170311599A1, “Target for Anthelmintic Development, and Anthelmintics Utilizing the Same” (The University of Toledo, priority 2016, published 2017):
“Also recorded” adds a separate entry of the source. Like-named read-outs stand apart in the source and are kept apart here.

Key:
[1] = target: H. contortus (Hco) LGC-55 orthologue (Haemonchus contortus, UniProt D7F471); test: in vivo
[2] = test system: TA quad animals (lack all previously identified TA receptors); test: Paralysis assay, quadruple TA receptor null C. elegans (TA quad); assay type: in vivo, Caenorhabditis elegans
[3] = target: C. elegans LGC-55 (TA-gated Cl- channel) (Caenorhabditis elegans, UniProt G5EEC1); test: Paralysis assay, TA quad expressing C. elegans LGC-55
[4] = test system: wild type C. elegans; test: Paralysis assay on agar plates, wild type C. elegans; assay type: in vivo, Caenorhabditis elegans
[5] = test system: Drosophila histamine-gated Cl- channel (HisCl1)
[6] = test system: 5-HT quint animals (C. elegans lacking all previously identified 5-HT receptors); test: Paralysis assay, quintuple 5-HT receptor null C. elegans (5-HT quint); assay type: in vivo, Caenorhabditis elegans; conditions: for effect on locomotion: 5-HT quint, 5-HT
[7] = target: C. elegans 5-HT1-like receptor SER-4 (Caenorhabditis elegans, UniProt G5EGH0); test: in vivo; assay type: in vivo; conditions: for activity from observations of nematode locomotion: FIGS. 9A-9B; for effect on locomotion: SER-4 in cholinergic motor neurons
[8] = target: T1, Drosophila 5-HT1 orthologue (5HT1A) (Drosophila melanogaster, UniProt P28285); test: Paralysis assay, 5-HT quint expressing Drosophila 5-HT1 orthologue in cholinergic motor neurons; assay type: in vivo
T1 sequence (P28285 1-834): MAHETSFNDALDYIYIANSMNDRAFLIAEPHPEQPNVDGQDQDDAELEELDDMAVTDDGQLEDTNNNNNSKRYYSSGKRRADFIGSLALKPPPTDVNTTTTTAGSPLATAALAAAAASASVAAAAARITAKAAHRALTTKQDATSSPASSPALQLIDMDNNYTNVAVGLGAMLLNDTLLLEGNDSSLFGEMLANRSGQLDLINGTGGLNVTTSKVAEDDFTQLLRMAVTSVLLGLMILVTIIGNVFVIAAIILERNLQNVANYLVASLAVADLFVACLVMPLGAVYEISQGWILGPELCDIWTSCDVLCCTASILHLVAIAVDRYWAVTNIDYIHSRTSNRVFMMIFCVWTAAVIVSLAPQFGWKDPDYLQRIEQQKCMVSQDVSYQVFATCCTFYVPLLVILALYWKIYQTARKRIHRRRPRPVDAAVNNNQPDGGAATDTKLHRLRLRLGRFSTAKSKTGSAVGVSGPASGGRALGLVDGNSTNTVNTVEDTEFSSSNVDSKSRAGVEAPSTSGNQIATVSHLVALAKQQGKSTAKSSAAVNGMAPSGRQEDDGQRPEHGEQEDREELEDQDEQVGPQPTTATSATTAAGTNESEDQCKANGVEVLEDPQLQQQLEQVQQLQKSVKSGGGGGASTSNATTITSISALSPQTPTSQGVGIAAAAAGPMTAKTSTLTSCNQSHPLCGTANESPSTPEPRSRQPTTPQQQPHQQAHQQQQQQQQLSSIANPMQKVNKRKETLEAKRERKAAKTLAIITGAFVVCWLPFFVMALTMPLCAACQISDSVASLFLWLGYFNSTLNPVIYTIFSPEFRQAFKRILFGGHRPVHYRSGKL

[9] = target: T2, human 5-HT1A receptor (HTR1A) (Homo sapiens, UniProt P08908); test: Paralysis assay, 5-HT quint expressing human 5-HT1A receptor in cholinergic motor neurons; assay type: in vivo, Caenorhabditis elegans
T2 construct: GFP (C); clone ID: 9020250
T2 sequence (P08908 1-422): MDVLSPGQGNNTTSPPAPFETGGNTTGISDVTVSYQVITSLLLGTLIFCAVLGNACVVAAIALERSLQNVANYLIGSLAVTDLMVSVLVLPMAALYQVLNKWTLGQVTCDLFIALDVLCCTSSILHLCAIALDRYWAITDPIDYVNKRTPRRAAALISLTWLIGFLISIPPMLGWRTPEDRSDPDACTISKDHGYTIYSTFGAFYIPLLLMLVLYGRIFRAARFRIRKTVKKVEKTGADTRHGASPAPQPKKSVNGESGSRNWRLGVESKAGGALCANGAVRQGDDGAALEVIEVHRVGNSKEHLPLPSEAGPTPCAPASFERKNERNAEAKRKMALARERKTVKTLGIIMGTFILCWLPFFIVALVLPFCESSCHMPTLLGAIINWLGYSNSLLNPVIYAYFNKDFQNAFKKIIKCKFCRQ

[10] = test system: bus-17 (e2800) mutants; test: whole plant or invertebrate; assay type: in vivo; conditions: Caenorhabditis elegans, 10 min, read-out: EC50 of 5-HT-dependent paralysis
[11] = target: H. contortus (Hco) MOD-1 orthologue (Haemonchus contortus, UniProt M9MR50); test: in vivo
[12] = test system: C. elegans 5-HT1-like receptor SER-4; test: in vivo; assay type: in vivo, Caenorhabditis elegans; conditions: paralysis screen, FIGS. 9A-9B
[13] = test system: flea (Ctenocephalides felis); test: Flea (FF) membrane feed assay (adult); assay type: in vivo; conditions: adult fleas fed treated blood, 24 hours, lowest dose causing mortality ≧50%
Protocol: For the flea (FF) membrane feed assay (adult), compounds were dissolved in DMSO and aliquots were added to citrated bovine blood in membrane covered wells warmed to 37° C. Adult fleas were newly emerged (3-7 days) and unfed. Feeding wells containing approximately 10 adult fleas were placed onto the treated blood wells, and the fleas were allowed to feed on the treated blood for 24 hours. […] Each compound was tested at half-log intervals, and endpoint data was recorded as Minimum Effective Concentration (MEC) in μM. MEC is a subjective visual assessment of organism viability, and is the lowest dose to cause mortality ≧50%.

[14] = test system: heartworm (Dirofilaria immitis) microfilaria; test: Heartworm (HW) motility assay (microfilaria); assay type: in vivo; parameters: activity against heartworm: dose or concentration left out as unconfirmed; conditions: for HW (n = 2 mean), minimum efficacious dose (MED): microfilaria, 72 hour incubation, >50% decrease in motility
Protocol: For the heartworm (HW) motility assay (microfilaria), compounds were dissolved in DMSO and half log dilutions were placed into individual wells. […] […] The data reported is minimum efficacious dose (MED), which is the lowest concentration where there was a >50% decrease in motility compared to the DMSO controls.

[15] = test system: Haemonchus contortus exsheathed L3 larvae; test: Gastrointestinal nematode (HC) motility assay (exsheathed L3); assay type: in vivo; conditions: exsheathed L3, 96 hours, >50% decrease in motility
Protocol: For the gastrointestinal nematode (HC) motility assay ([…]3), compounds were dissolved in DMSO and half log dilutions were placed into individual wells. To each well was added approximately 100 Haemonchus contortus […]3 larvae in a buffered nutrient media containing glucose and antibiotic panel resulting in a final concentration curve ranging from 100 μM to 1 nM. […] The data reported is minimum efficacious dose (MED), which is the lowest concentration where there was a >50% decrease in motility compared to the DMSO controls.

[16] = exogenous 5-HT (1 mM), hypotonic

Sequence of C. elegans 5-HT1-like receptor SER-4 (Caenorhabditis elegans, UniProt G5EGH0) (G5EGH0 entry or part of it): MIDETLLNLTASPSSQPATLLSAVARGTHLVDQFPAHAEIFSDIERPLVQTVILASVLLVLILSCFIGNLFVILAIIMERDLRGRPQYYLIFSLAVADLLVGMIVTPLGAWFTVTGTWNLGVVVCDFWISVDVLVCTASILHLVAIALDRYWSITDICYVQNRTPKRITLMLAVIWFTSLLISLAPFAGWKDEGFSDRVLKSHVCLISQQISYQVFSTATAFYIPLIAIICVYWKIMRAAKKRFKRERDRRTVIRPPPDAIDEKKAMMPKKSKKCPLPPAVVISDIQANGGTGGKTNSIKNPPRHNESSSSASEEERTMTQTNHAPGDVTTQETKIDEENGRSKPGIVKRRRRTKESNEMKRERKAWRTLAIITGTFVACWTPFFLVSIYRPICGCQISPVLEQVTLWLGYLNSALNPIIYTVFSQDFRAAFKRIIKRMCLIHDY
Sequence of C. elegans LGC-55 (TA-gated Cl- channel) (G5EEC1 entry or part of it): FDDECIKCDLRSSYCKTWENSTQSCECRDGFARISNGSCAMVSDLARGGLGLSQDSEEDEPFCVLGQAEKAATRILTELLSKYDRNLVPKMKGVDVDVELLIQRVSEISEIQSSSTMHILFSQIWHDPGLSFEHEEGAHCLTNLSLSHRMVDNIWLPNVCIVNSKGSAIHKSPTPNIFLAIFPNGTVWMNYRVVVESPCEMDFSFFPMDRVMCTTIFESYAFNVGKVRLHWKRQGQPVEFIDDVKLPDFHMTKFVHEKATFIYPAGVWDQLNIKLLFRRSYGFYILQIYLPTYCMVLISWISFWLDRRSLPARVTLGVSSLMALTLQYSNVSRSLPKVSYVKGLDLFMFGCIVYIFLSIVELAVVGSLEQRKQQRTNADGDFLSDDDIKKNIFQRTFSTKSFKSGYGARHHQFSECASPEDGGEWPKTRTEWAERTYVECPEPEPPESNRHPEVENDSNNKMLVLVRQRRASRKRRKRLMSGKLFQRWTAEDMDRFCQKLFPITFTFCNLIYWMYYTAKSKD
Sequence of H. contortus (Hco) LGC-55 orthologue (D7F471 entry or part of it): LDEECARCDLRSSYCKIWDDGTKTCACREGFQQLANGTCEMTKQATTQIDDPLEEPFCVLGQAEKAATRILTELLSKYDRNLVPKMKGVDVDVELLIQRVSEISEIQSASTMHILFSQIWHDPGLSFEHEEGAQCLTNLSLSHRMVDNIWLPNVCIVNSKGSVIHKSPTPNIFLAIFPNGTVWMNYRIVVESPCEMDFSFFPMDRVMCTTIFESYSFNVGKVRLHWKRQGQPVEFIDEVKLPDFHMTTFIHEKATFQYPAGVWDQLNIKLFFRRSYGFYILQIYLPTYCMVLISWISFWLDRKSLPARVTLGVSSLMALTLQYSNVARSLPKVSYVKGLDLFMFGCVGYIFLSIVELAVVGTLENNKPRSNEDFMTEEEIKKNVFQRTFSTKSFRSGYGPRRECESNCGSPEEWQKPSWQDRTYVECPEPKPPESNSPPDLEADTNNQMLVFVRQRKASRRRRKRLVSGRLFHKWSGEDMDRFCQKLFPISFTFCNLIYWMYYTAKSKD
Sequence of H. contortus (Hco) MOD-1 orthologue (M9MR50 entry or part of it): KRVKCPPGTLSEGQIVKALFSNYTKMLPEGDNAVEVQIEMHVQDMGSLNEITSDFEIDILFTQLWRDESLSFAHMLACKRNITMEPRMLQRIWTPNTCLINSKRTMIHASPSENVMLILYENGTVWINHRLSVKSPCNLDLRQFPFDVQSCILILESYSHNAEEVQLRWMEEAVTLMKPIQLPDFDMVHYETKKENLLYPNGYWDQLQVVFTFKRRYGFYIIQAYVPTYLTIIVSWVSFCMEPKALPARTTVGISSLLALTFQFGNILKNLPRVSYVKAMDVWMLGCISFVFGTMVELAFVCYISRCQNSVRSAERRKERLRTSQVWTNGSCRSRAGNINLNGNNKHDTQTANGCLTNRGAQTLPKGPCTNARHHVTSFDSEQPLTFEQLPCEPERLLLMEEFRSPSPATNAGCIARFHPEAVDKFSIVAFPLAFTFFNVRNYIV

NCCc1ccc(O)cc1 [TA, tyramine]
EC50 [1]: ~100 µM | effect on locomotion [2]: no effect on locomotion | EC50 [3]: ~100 µM

Cl.Cl.NCCc1c[nH]cn1 [histamine, histamine dihydrochloride]
paralysis ([4]; 2 mM histamine, NGM plates): did not cause paralysis | paralysis ([5]; 2 mM histamine, NGM plates): did not cause paralysis | paralysis ([5]; 2 mM histamine, hypotonic assay conditions): caused significance paralysis | paralysis ([5]; 10 mM histamine, NGM plates): caused significance paralysis

NCCc1c[nH]c2ccc(O)cc12 [5-HT, Serotonin]
paralysis ([4]; 1 mM 5-HT, 10 min exposure, hypotonic non-NGM agar): 50% | paralysis ([4]; 15 mM 5-HT, NGM agar plates): rapid paralysis | EC50 ([4]; Caenorhabditis elegans, 10 min, isotonic NGM agar plates, 10 min, read-out: EC50 of 5-HT-dependent paralysis): 11500 µM | EC50 ([4]; Caenorhabditis elegans, hypotonic (agar alone without NGM, salt-free), read-out: EC50 of 5-HT-dependent paralysis): ~400 µM | EC50 ([4]; hypotonic (agar alone without NGM, salt-free), read-out: EC50 of 5-HT-dependent paralysis): ~500 µM | EC50 ([4]; isotonic NGM agar plates, 10 min, read-out: EC50 of 5-HT-dependent paralysis): ~12000 µM | effect on locomotion ([6]; NGM agar plates): no effect on locomotion | effect on locomotion ([6]; hypotonic non-NGM agar plates): no effect on locomotion | paralysis ([7]; 5-HT quint expressing SER-4 in AIB interneurons (Pnpr-9), 5-HT (1 mM), hypotonic): rapidly paralyzed | paralysis ([7]; 5-HT quint expressing SER-4 in cholinergic motor neurons (Punc-17β), 5-HT (1 mM), hypotonic): rapidly paralyzed | paralysis ([7]; SER-4 quad (ser-5;mod-1;ser-7 ser-1 quadruple null), 15 mM 5-HT, NGM agar plates): rapid paralysis | locomotion [8, 16]: dramatically inhibited | locomotion [9, 16]: dramatically inhibited | EC50 [10]: ~240 µM | EC50 [11]: ~200 µM

Nc1ccc(CCN2CCN(c3cccc(C(F)(F)F)c3)CC2)cc1 [PAPP, p-amino-phenethyl-m-trifluoromethylphenyl piperazine]
EC50 ([4]; Caenorhabditis elegans, 0.25 h, 15 min exposure, hypotonic, read-out: EC50 of PAPP-dependent paralysis): 370 µM | EC50 ([6]; Caenorhabditis elegans, 0.25 h, read-out: EC50 of PAPP-dependent paralysis): 680 µM | EC50 [7]: 170 µM

COc1ccc2[nH]c(C)c(/C=C/C(=O)c3ccncc3)c2c1 [CD3-719]
activity from observations of nematode locomotion [7]: decreased activity

CCCc1[nH]c2ccc(OC)cc2c1/C=C/C(=O)c1ccncc1 [CD3-980]
activity from observations of nematode locomotion [7]: at least moderate activity with favorable species selectivity

CNS(=O)(=O)Cc1ccc2[nH]cc(CCN(C)C)c2c1 [sumatriptan, sumatriptan succinate]
effect on locomotion ([4]; 0.5 mM sumatriptan, hypotonic): no effect on locomotion | effect on locomotion ([7]; 0.5 mM sumatriptan): no effect on locomotion | effect on locomotion ([8]; 0.5 mM sumatriptan): no effect on locomotion | effect on locomotion ([9]; 0.5 mM sumatriptan): no effect on locomotion | paralysis ([9]; sumatriptan at higher concentrations (1 mM)): failed to fully paralyze

O=C(/C=C/c1c[nH]c2ccc(O)cc12)c1ccncc1 [CD3-718, trans-3-(5-hydroxy-1H-indol-3-yl)-1-(4-pyridinyl)-2-propen-1-one]
paralysis ([4]; 15 minutes exposure): causing paralysis | paralysis ([6]; 5-HT quint animals, 15 minutes exposure): not in animals that do not express any previously identified 5-HT receptors | paralysis ([7]; animals expressing the nematode 5-HT1 receptor (SER-4), 15 minutes exposure): causing paralysis | selectivity for C. elegans 5-HT1 versus human 5-HT1 [12]: remarkable selectivity; also recorded: remarkably selective | FF (n = 2 mean), Minimum Effective Concentration (MEC) [13]: >100 µg/mL | activity against heartworm [14]: inactive | HW (n = 2 mean), minimum efficacious dose (MED) [14]: >100 µg/mL | HC (n = 2 mean), minimum efficacious dose (MED) [15]: >100 µg/mL

CCCN(CCC)C1CCc2cccc(O)c2C1 (stereo not shown) [8-OH-DPAT, 8-hydroxy-2-(di-n-propylamino) tetralin]
effect on locomotion ([7]; 8-OH-DPAT at 2 mM, hypotonic): no effect on locomotion | effect on locomotion ([8]; 8-OH-DPAT at 2 mM, hypotonic): no effect on locomotion | paralysis ([9]; 8-OH-DPAT (2 mM), hypotonic): rapidly paralyzed

CSCCC(NC(=O)C(Cc1ccc(O)cc1)NC(=O)Cc1c[nH]c2ccccc12)C(=O)NC(C)C(=O)O [CD3-276, N-[(Indol-3)acetyl]-D-Tyrosyl-Methionyl-D-alanine]
FF (n = 2 mean), Minimum Effective Concentration (MEC) [13]: >100 µg/mL | activity against heartworm [14]: inactive | HW (n = 2 mean), minimum efficacious dose (MED) [14]: >100 µg/mL | HC (n = 2 mean), minimum efficacious dose (MED) [15]: >100 µg/mL

COc1ccc2[nH]c(CC(C)C)c(/C=C/C(=O)c3ccncc3)c2c1 [CD3-984]
activity from observations of nematode locomotion [7]: at least moderate activity with favorable species selectivity

O=C(/C=C/c1c[nH]c2ccccc12)c1ccccc1 [CD3-664]
FF (n = 2 mean), Minimum Effective Concentration (MEC) [13]: >100 µg/mL | activity against heartworm [14]: active against heartworm | HW (n = 2 mean), minimum efficacious dose (MED) [14]: 100 µg/mL | HC (n = 2 mean), minimum efficacious dose (MED) [15]: >100 µg/mL
